Patent US20240398811A1, “PRC2 INHIBITORS FOR USE IN TREATING BLOOD DISORDERS” (ORIC Pharmaceuticals, Inc., priority 2021, published 2024)

Target: purified human, His-tagged PRC2 complex (Homo sapiens (Human), UniProt O75530)
Assay: Hot Spot HMT assay, inhibition of PRC2 enzymatic activity
Assay type: biochemical
Conditions: 10 nM PRC2 complex, 1 μM 3H-SAM, core histone H3, 10-point dose-response
How it was run: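 Five-subunit PRC2 complex (EZH2, EED, SUZ12, AEBP2, RbAp48; 10 nM) preincubated 20 min at 30° C with compound (top 1.0 μM) and 0.05 mg/ml core histone H3 in Tris-HCl, 1% DMSO. Started with 1 μM [3H]SAM, 1 hr at 30° C; tritiated H3 measured by filter binding and scintillation.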

Chain of purified human, His-tagged PRC2 complex (O75530 whole entry): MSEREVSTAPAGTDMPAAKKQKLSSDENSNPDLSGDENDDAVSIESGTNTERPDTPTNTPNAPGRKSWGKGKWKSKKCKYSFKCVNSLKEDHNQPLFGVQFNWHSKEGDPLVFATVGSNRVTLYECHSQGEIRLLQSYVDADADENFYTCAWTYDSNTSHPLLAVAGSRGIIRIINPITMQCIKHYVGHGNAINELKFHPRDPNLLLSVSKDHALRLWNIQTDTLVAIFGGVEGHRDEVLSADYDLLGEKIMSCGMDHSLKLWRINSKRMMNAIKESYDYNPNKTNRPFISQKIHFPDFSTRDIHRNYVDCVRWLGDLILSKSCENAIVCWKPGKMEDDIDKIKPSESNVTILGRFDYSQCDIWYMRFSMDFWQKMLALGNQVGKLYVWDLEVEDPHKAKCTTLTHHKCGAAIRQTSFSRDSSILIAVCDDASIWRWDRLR
Chain of purified human, His-tagged PRC2 complex (Q15910 whole entry partner): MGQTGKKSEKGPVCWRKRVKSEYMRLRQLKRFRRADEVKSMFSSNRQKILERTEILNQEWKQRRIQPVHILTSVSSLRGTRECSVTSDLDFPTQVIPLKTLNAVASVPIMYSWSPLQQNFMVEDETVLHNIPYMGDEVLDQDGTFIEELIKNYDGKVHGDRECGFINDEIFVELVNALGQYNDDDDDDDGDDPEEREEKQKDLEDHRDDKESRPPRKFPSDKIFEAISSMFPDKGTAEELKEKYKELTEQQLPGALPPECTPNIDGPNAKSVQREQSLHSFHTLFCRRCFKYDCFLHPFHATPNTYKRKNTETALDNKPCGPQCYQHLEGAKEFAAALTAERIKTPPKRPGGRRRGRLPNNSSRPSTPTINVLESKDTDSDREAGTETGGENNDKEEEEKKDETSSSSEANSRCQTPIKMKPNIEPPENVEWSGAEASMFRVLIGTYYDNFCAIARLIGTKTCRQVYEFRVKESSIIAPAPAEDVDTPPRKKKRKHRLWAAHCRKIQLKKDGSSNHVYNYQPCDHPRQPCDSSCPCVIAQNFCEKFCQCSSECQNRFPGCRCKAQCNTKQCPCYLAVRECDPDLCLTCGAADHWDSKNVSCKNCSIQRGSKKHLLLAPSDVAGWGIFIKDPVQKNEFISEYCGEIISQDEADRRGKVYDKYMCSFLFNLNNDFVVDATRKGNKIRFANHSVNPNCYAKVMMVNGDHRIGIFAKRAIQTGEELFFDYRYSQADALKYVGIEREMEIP
Chain of purified human, His-tagged PRC2 complex (Q15022 whole entry partner): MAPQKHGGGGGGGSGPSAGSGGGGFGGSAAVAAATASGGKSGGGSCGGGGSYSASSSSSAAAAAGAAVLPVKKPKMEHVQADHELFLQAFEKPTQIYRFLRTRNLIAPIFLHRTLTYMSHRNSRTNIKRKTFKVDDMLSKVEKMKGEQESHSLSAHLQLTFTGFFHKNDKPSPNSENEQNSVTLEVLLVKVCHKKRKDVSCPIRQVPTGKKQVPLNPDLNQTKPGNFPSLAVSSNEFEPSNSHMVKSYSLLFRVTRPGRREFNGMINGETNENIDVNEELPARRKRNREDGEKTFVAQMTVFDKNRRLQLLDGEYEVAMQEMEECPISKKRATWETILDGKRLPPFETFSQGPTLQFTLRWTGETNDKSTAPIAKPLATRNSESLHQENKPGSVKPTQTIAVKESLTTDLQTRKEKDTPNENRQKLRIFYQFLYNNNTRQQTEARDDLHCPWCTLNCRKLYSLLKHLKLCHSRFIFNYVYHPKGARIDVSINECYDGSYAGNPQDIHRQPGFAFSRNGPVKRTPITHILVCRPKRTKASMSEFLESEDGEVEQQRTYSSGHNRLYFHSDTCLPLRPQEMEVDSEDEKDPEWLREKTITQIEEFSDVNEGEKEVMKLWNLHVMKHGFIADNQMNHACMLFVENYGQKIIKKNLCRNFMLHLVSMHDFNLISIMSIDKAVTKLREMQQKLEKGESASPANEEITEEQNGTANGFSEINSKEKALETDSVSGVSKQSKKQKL
Chain of purified human, His-tagged PRC2 complex (Q6ZN18 whole entry partner): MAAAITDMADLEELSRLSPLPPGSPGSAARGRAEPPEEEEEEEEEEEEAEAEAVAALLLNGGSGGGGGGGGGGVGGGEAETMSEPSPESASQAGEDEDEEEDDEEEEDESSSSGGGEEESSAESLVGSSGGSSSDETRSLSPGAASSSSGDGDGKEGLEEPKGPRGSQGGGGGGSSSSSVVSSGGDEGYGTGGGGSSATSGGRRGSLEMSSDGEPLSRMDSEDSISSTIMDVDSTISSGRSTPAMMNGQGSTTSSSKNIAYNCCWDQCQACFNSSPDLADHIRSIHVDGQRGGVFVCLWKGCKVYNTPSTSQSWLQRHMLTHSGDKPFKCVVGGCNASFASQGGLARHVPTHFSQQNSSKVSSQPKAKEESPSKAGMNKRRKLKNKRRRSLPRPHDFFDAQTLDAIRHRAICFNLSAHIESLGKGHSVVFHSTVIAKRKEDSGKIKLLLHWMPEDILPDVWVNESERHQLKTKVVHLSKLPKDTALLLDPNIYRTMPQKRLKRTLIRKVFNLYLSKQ
Chain of purified human, His-tagged PRC2 complex (Q09028 whole entry partner): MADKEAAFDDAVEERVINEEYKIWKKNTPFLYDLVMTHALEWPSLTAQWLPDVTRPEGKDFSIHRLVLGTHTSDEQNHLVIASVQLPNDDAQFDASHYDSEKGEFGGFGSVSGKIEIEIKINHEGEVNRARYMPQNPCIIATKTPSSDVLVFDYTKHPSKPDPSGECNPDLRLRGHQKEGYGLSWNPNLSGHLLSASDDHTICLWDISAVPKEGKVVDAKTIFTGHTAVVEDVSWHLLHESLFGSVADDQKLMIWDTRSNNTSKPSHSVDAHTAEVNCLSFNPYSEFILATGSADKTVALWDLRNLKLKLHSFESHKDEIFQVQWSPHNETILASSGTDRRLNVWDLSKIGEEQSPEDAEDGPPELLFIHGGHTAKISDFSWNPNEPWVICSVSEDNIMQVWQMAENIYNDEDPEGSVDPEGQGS

SMILES: Cc1c(-c2cnc(NCc3c(F)ccc4c3CCO4)n3cc(C#N)nc23)cnn1C(C)C [Example 26, 5-(((5-fluoro-2,3-dihydrobenzofuran-4-yl)methyl)amino)-8-(1-isopropyl-5-methyl-1H-pyrazol-4-yl)imidazo[1,2-c]pyrimidine-2-carbonitrile]
- IC50: 100 to 500 nM

SMILES: [2H]C([2H])(Nc1ncc(-c2ccc(CN(C)C)cc2)c2nc(C#N)cn12)c1c(F)ccc2c1CCO2 [Example 165, 8-(4-((dimethylamino)methyl)phenyl)-5-(((5-fluoro-2,3-dihydrobenzofuran-4-yl)methyl-d2)amino)imidazo[1,2-c]pyrimidine-2-carbonitrile]
- IC50: < 100 nM

SMILES: Cc1cc(C(=O)N(C)C)ccc1-c1cnc(NCc2c(F)ccc3c2CCO3)n2cc(C#N)nc12 [Example 44, 4-(2-cyano-5-(((5-fluoro-2,3-dihydrobenzofuran-4-yl)methyl)amino)imidazo[1,2-c]pyrimidin-8-yl)-N,N,3-trimethylbenzamide]
- IC50: < 100 nM

SMILES: N#Cc1cn2c(NCc3c(F)ccc4c3CCO4)ncc(-c3cc[nH]c(=O)c3)c2n1 [Example 218, 5-(((5-fluoro-2,3-dihydrobenzofuran-4-yl)methyl)amino)-8-(2-oxo-1,2-dihydropyridin-4-yl)imidazo[1,2-c]pyrimidine-2-carbonitrile]
- IC50: < 100 nM

SMILES: N#Cc1cn2c(NCc3c(F)ccc4c3CCO4)ncc(C3CCOCC3)c2n1 [Example 141, 5-(((5-fluoro-2,3-dihydrobenzofuran-4-yl)methyl)amino)-8-(tetrahydro-2H-pyran-4-yl)imidazo[1,2-c]pyrimidine-2-carbonitrile]
- IC50: > 500 nM

SMILES: Cc1cc(-c2cnc(NCc3cccc4c3CCO4)n3cc(C#N)nc23)n(C)n1 [Example 30, 5-(((2,3-dihydrobenzofuran-4-yl)methyl)amino)-8-(1,3-dimethyl-1H-pyrazol-5-yl)imidazo[1,2-c]pyrimidine-2-carbonitrile]
- IC50: 100 to 500 nM

SMILES: Cc1cc(CN(C)C)ccc1-c1cnc(NCc2c(F)ccc3c2C(O)CO3)n2cc(C#N)nc12 (stereo not shown) [Example 207, 8-(4-((dimethylamino)methyl)-2-methylphenyl)-5-(((5-fluoro-3-hydroxy-2,3-dihydrobenzofuran-4-yl)methyl)amino)imidazo[1,2-c]pyrimidine-2-carbonitrile]
- IC50: < 100 nM

SMILES: CN(C)C(=O)c1ccc(-c2cnc(NCc3c(F)ccc4c3CCO4)n3cc(C#N)nc23)c(Cl)c1 [Example 31, 3-chloro-4-(2-cyano-5-(((5-fluoro-2,3-dihydrobenzofuran-4-yl)methyl)amino)imidazo[1,2-c]pyrimidin-8-yl)-N,N-dimethylbenzamide]
- IC50: < 100 nM

SMILES: Cc1nn(C(C)C)cc1-c1cnc(NCc2c(F)ccc3c2CCO3)n2cc(C(=O)O)nc12 [Example 5, 5-(((5-fluoro-2,3-dihydrobenzofuran-4-yl)methyl)amino)-8-(1-isopropyl-3-methyl-1H-pyrazol-4-yl)imidazo[1,2-c]pyrimidine-2-carboxylic acid]
- IC50: < 100 nM

SMILES: N#Cc1cn2c(NCc3c(F)ccc4c3CCO4)ncc(-c3ccccc3C#N)c2n1 [Example 187, 8-(2-cyanophenyl)-5-(((5-fluoro-2,3-dihydrobenzofuran-4-yl)methyl)amino)imidazo[1,2-c]pyrimidine-2-carbonitrile]
- IC50: < 100 nM

SMILES: Cc1nc(N2CCN(C)CC2)ccc1-c1cnc(NCc2c(F)ccc3c2CCO3)n2cc(C(N)=O)nc12 [Example 138, 5-(((5-fluoro-2,3-dihydrobenzofuran-4-yl)methyl)amino)-8-(2-methyl-6-(4-methylpiperazin-1-yl)pyridin-3-yl)imidazo[1,2-c]pyrimidine-2-carboxamide]
- IC50: < 100 nM

SMILES: N#Cc1cn2c(NCc3c(F)ccc4c3CCO4)ncc(-c3ccc(C4CCCN4)cc3)c2n1 (stereo not shown) [Example 204, 5-(((5-fluoro-2,3-dihydrobenzofuran-4-yl)methyl)amino)-8-(4-(pyrrolidin-2-yl)phenyl)imidazo[1,2-c]pyrimidine-2-carbonitrile]
- IC50: 100 to 500 nM

SMILES: Cc1cc(-c2cnc(NCc3cccc4c3CCO4)n3cc(C(N)=O)nc23)n(C)n1 [Example 19, 5-(((2,3-dihydrobenzofuran-4-yl)methyl)amino)-8-(1,3-dimethyl-1H-pyrazol-5-yl)imidazo[1,2-c]pyrimidine-2-carboxamide]
- IC50: < 100 nM

SMILES: COC1CN(Cc2ccc(-c3cnc(NCc4c(F)ccc5c4CCO5)n4cc(C#N)nc34)cc2)C1 [Example 50, 5-(((5-fluoro-2,3-dihydrobenzofuran-4-yl)methyl)amino)-8-(4-((3-methoxyazetidin-1-yl)methyl)phenyl)imidazo[1,2-c]pyrimidine-2-carbonitrile]
- IC50: < 100 nM

SMILES: Cc1cc(-c2cnc(NCc3c(F)ccc4occc34)n3cc(C(N)=O)nc23)n(C)n1 [Example 18, 8-(1,3-dimethyl-1H-pyrazol-5-yl)-5-(((5-fluorobenzofuran-4-yl)methyl)amino)imidazo[1,2-c]pyrimidine-2-carboxamide]
- IC50: < 100 nM

SMILES: CC(c1ccc(-c2cnc(NCc3c(F)ccc4c3CCO4)n3cc(C#N)nc23)cc1)N(C)C (stereo not shown) [Example 199, 8-(4-(1-(dimethylamino)ethyl)phenyl)-5-(((5-fluoro-2,3-dihydrobenzofuran-4-yl)methyl)amino)imidazo[1,2-c]pyrimidine-2-carbonitrile]
- IC50: < 100 nM

SMILES: COc1cc(-c2cnc(NCc3c(F)ccc4c3CCO4)n3cc(C#N)nc23)c(F)cn1 [Example 123, 5-(((5-fluoro-2,3-dihydrobenzofuran-4-yl)methyl)amino)-8-(5-fluoro-2-methoxypyridin-4-yl)imidazo[1,2-c]pyrimidine-2-carbonitrile]
- IC50: < 100 nM

SMILES: CN1CCCC1c1ccc(-c2cnc(NCc3c(F)ccc4c3CCO4)n3cc(C#N)nc23)cc1 (stereo not shown) [Example 160, 5-(((5-fluoro-2,3-dihydrobenzofuran-4-yl)methyl)amino)-8-(4-(1-methylpyrrolidin-2-yl)phenyl)imidazo[1,2-c]pyrimidine-2-carbonitrile]
- IC50: < 100 nM

SMILES: N#Cc1cn2c(NCc3c(F)ccc4c3CCO4)ncc(-c3cccc(C(=O)O)c3)c2n1 [Example 174, 3-(2-cyano-5-(((5-fluoro-2,3-dihydrobenzofuran-4-yl)methyl)amino)imidazo[1,2-c]pyrimidin-8-yl)benzoic acid]
- IC50: < 100 nM

SMILES: N#Cc1cn2c(NCc3c(F)ccc4c3CCO4)ncc(-c3ccc4c(c3)CNC4)c2n1 [Example 205, 5-(((5-fluoro-2,3-dihydrobenzofuran-4-yl)methyl)amino)-8-(isoindolin-5-yl)imidazo[1,2-c]pyrimidine-2-carbonitrile]
- IC50: 100 to 500 nM

SMILES: N#Cc1cn2c(NCc3c(F)ccc4c3CCO4)ncc(-c3ccnn3C3CC3)c2n1 [Example 193, 8-(1-cyclopropyl-1H-pyrazol-5-yl)-5-(((5-fluoro-2,3-dihydrobenzofuran-4-yl)methyl)amino)imidazo[1,2-c]pyrimidine-2-carbonitrile]
- IC50: < 100 nM

SMILES: Cc1nc(N2CCN(C)CC2)ccc1-c1cnc(NCc2c(F)ccc3c2CCO3)n2cc(C#N)nc12 [Example 136, 5-(((5-fluoro-2,3-dihydrobenzofuran-4-yl)methyl)amino)-8-(2-methyl-6-(4-methylpiperazin-1-yl)pyridin-3-yl)imidazo[1,2-c]pyrimidine-2-carbonitrile]
- IC50: 100 to 500 nM
